Source: US20090110718A1, “Derivatives of tiacumicin B as anti-cancer agents” (Echem Hightech Co., Ltd., priority 2007, published 2009)

How the values were obtained:
Format in all cases: cell-based, human
MCF7 breast cancer cells = test: Cell viability assay (MTT), MCF7; settings: for IC50: 72 hrs treatment, 1 to 10 μM tested, MTT, ± SD, read-out: Observed IC50 for MCF7 breast cancer cells
Procedure: (§1) Experiments were performed using different cancer cell-lines, which were supplied by the American Type Culture Collection (ATCC), Rockville, Md., USA, and maintained in the recommended culturing media. The detailed steps and condition for cell culture are described as the following: MCF7, human breast adenocarcinoma: Minimum essential medium (Eagle) with 2 mM L-glutamine and Earle's BSS adjusted to contain 1.5 g/L sodium bicarbonate, 0.1 mM non-essential amino acids and 1.0 mM sodium pyruvate and supplemented with 0.01 mg/ml insulin, 90%; fetal bovine serum, 10%. […] All test samples were dissolved in absolute ethanol and serial diluted to the testing concentrations. For blank sample, absoluted ethanol was used. The final organic solvent content for all cell assays were less than or equal to 0.1%. The cell viability assay was conducted by using the method described by J. Carmichael, et al in Cancer Research 47:936 (1987). All the cells were seeded into 96-well microtitre plates and incubated at 37° C. under 5% CO2 atmosphere. For MCF7, T-47D and WS1, 3000 cells/100 μl/well were used and for HeLa, 1000 cells/100 μl/well were used. […] After additional 72 hours of incubation at 37° C. under 5% CO2 atmosphere, the cell were then collected and evaluated using MTT assay to assess the cell viability by using the method mentioned above. […] Cultures containing 3000 cells per well were treated with 0, 1, 2.5, 5 and 10 μM (final concentration) of the test samples and the viable cells were counted after 72 hrs. […] In both FIG. 1 and FIG. 2, error bars are indicated the estimated standard deviation based on three experiments.

[1] = tested on: T-47D breast cancer cells; test: Cell viability assay (MTT), T-47D; settings: 72 hrs treatment, 1 to 10 μM tested, ± SD, read-out: Observed IC50 for T-47D breast cancer cells
Procedure: as §1, with “media.” for “media. The detailed steps and condition for cell culture are described as the following: MCF7, human breast adenocarcinoma: Minimum essential medium (Eagle) with 2 mM L-glutamine and Earle's BSS adjusted to contain 1.5 g/L sodium bicarbonate, 0.1 mM non-essential amino acids and 1.0 mM sodium pyruvate and supplemented with 0.01 mg/ml insulin, 90%; fetal bovine serum, 10%.”

[2] = tested on: HeLa cervical cancer cells; test: Cell viability assay (MTT), HeLa; settings: for IC50: 72 hrs treatment, 1 to 10 μM tested, MTT, ± SD, read-out: Observed IC50 for HeLa cervial cancer cells
Procedure: Experiments were performed using different cancer cell-lines, which were supplied by the American Type Culture Collection (ATCC), Rockville, Md., USA, and maintained in the recommended culturing media. The detailed steps and condition for cell culture are described as the following: HeLa, humen cervical adenocarcinoma: Minimum essential medium (Eagle) with 2 mM L-glutamine and Earle's BSS adjusted to contain 1.5 g/L sodium bicarbonate, 0.1 mM non-essential amino acids and 1.0 mM sodium pyruvate and supplemented with 0.01 mg/ml insulin, 90%; fetal bovine serum, 10%. […] All test samples were dissolved in absolute ethanol and serial diluted to the testing concentrations. For blank sample, absoluted ethanol was used. The final organic solvent content for all cell assays were less than or equal to 0.1%. The cell viability assay was conducted by using the method described by J. Carmichael, et al in Cancer Research 47:936 (1987). All the cells were seeded into 96-well microtitre plates and incubated at 37° C. under 5% CO2 atmosphere. For MCF7, T-47D and WS1, 3000 cells/100 μl/well were used and for HeLa, 1000 cells/100 μl/well were used. […] After additional 72 hours of incubation at 37° C. under 5% CO2 atmosphere, the cell were then collected and evaluated using MTT assay to assess the cell viability by using the method mentioned above. Error bars are indicated the estimated standard deviation based on three experiments.

Row | Compound | IC50 (MCF7 breast cancer cells) [µM] | IC50 [1] [µM] | IC50 [2] [µM] | IC50 value compared with tamoxifen, MCF7 (MCF7 breast cancer cells; statement in words) | IC50 value compared with tamoxifen, HeLa ([2]; statement in words)
1 | CCc1c(Cl)c(O)c(Cl)c(O)c1C(=O)O[C@@H]1[C@@H](O)[C@@H](OC)[C@@H](OC/C2=C\C=C\CC(O)/C(C)=C/C(CC)C(O[C@@H]3OC(C)(C)[C@H]4OC(c5ccccc5C)O[C@@H]4[C@@H]3OC(=O)C(C)C)/C(C)=C/C(C)=C/CC(C(C)O)OC2=O)O[C@H]1C (some centres unmarked) [TB1, 2-methylbenzylidene acetal] | 7.06 ± 0.83 | 3.99 ± 0.58 | 5.88 ± 0.42 |  | 
2 | CCc1c(Cl)c(O)c(Cl)c(O)c1C(=O)O[C@@H]1[C@@H](O)[C@@H](OC)[C@@H](OC/C2=C\C=C\CC(O)/C(C)=C/C(CC)C(O[C@@H]3OC(C)(C)[C@H]4OC(c5cccc(O)c5)O[C@@H]4[C@@H]3OC(=O)C(C)C)/C(C)=C/C(C)=C/CC(C(C)O)OC2=O)O[C@H]1C (some centres unmarked) [TB2, 3-hydroxylbenzylidene acetal] | 6.9 ± 0.36 | 4.24 ± 0.05 | 5.98 ± 0.22 | superior to that of tamoxifen | 
3 | CCc1c(Cl)c(O)c(Cl)c(O)c1C(=O)O[C@@H]1[C@@H](O)[C@@H](OC)[C@@H](OC/C2=C\C=C\CC(O)/C(C)=C/C(CC)C(O[C@@H]3OC(C)(C)[C@H]4OC(c5cccc(OC)c5)O[C@@H]4[C@@H]3OC(=O)C(C)C)/C(C)=C/C(C)=C/CC(C(C)O)OC2=O)O[C@H]1C (some centres unmarked) [TB3, 3-methoxylbenzylidene acetal] | 7.09 ± 0.54 | 4.99 ± 0.22 | 5.99 ± 0.45 |  | 
4 | CCc1c(Cl)c(O)c(Cl)c(O)c1C(=O)O[C@@H]1[C@@H](O)[C@@H](OC)[C@@H](OC/C2=C\C=C\CC(O)/C(C)=C/C(CC)C(O[C@@H]3OC(C)(C)[C@H]4OC(c5ccccc5Cl)O[C@@H]4[C@@H]3OC(=O)C(C)C)/C(C)=C/C(C)=C/CC(C(C)O)OC2=O)O[C@H]1C (some centres unmarked) [TB4, 2-chlorobenzylidene acetal] | 6.81 ± 0.01 | 5.66 ± 0.62 | 5.69 ± 0.24 |  | 
5 | CCc1c(Cl)c(O)c(Cl)c(O)c1C(=O)O[C@@H]1[C@@H](O)[C@@H](OC)[C@@H](OC/C2=C\C=C\CC(O)/C(C)=C/C(CC)C(O[C@@H]3OC(C)(C)[C@H]4OC(c5ccccc5C(F)(F)F)O[C@@H]4[C@@H]3OC(=O)C(C)C)/C(C)=C/C(C)=C/CC(C(C)O)OC2=O)O[C@H]1C (some centres unmarked) [TB5, 2-trifluoromethylbenzylidene acetal] | 5.95 ± 0.46 | 4.66 ± 0.57 | 5.6 ± 0.37 |  | 
6 | CCc1c(Cl)c(O)c(Cl)c(O)c1C(=O)O[C@@H]1[C@@H](O)[C@@H](OC)[C@@H](OC/C2=C\C=C\CC(O)/C(C)=C/C(CC)C(O[C@@H]3OC(C)(C)[C@H]4OC(c5ccc(N(CC)CC)cc5)O[C@@H]4[C@@H]3OC(=O)C(C)C)/C(C)=C/C(C)=C/CC(C(C)O)OC2=O)O[C@H]1C (some centres unmarked) [TB6, 4-N,N-diethylaminobenzylidene acetal] | 5.98 ± 0.54 | 4.77 ± 0.51 | 5.56 ± 0.13 |  | superior to that of tanoxifen
7 | CCc1c(Cl)c(O)c(Cl)c(O)c1C(=O)O[C@@H]1[C@@H](O)[C@@H](OC)[C@@H](OC/C2=C\C=C\CC(O)/C(C)=C/C(CC)C(O[C@@H]3OC(C)(C)[C@H]4OC(c5ccc(N(CC)CC)cc5OC)O[C@@H]4[C@@H]3OC(=O)C(C)C)/C(C)=C/C(C)=C/CC(C(C)O)OC2=O)O[C@H]1C (some centres unmarked) [TB7, 4-N,N-diethylamino-2-methoxybenzylidene acetal] | 6.19 ± 0.68 | 4.8 ± 0.46 | 5.3 ± 0.49 |  | 
8 | CCc1c(Cl)c(O)c(Cl)c(O)c1C(=O)O[C@@H]1[C@@H](O)[C@@H](OC)[C@@H](OC/C2=C\C=C\CC(O)/C(C)=C/C(CC)C(O[C@@H]3OC(C)(C)[C@H]4OC(c5cc(C(C)(C)C)c(O)c(C(C)(C)C)c5)O[C@@H]4[C@@H]3OC(=O)C(C)C)/C(C)=C/C(C)=C/CC(C(C)O)OC2=O)O[C@H]1C (some centres unmarked) [TB8, 4,5-tert-dibutyl-4-hydroxybenzylidene acetal] | 5.78 ± 0.81 | 4.04 ± 1.09 | 5.76 ± 0.32 |  | 
9 | tiacumicin B [tiacumicin B (TB), reference compound] | 8.39 ± 1 | 5.56 ± 0.57 | 8.54 ± 1.03 |  | 
